These are literature values, as cited in paper PMC4457351 (Journal of Visualized Experiments : JoVE, 2014).

For the data set the following is noted: read-out: Kd(calcium).

The Kd is a measure of binding affinity in units of concentration. Fluo-4: the Kd was about 345 nM.
